The values below come from US7485632B2, “Cephalosporins” (Nabriva Therapeutics Forschungs GmbH, priority 2002, dated 2009).

Converted amounts (≈) assume the structure as drawn.

Assay type in all cases: cell-based
Experiment [1] relates to Staphylococcus aureus (MSSA). In words: Agar Dilution Test (NCCLS), MIC. The note with it: against Staphylococcus aureus (MSSA). A general note: In agar dilution the substance is mixed into plates at graded concentrations.
The subject of experiment [2] is Klebsiella. The experiment is described as follows: Agar Dilution Test (NCCLS), MIC. The note with it: against Klebsiella.
Experiment [3] relates to Streptococcus pneumoniae. In words: Agar Dilution Test (NCCLS), MIC. The settings on record: against Streptococcus pneumoniae.
Experiment [4] has as its system Klebsiella pneumoniae. In words: Agar Dilution Test (NCCLS), MIC. The note with it: against Klebsiella pneumoniae.
Experiment [5] relates to Pseudomonas aeruginosa. In words: Antibacterial activity.

As for `CN(/N=C/C1=C(C(=O)O)N2C(=O)[C@@H](NC(=O)/C(=N\OCF)c3nsc(N)n3)C2SC1)C(=N)N[C@H]1CC[C@H](N)CC1` (stereo partly drawn) [Example 1, 3-{(E)[[1-trans-(4-Amino-cyclohexylamino)-iminomethyl]-methylhydrazono]methyl}-7-{[(5-amino-1,2,4-thiadiazol-3-yl)-(Z)-(fluoromethoxyimino)-acetyl]amino}-3-cephem-4-carboxylic acid], the minimum inhibitory concentration (MIC) is 0.05 to 0.2 µg/mL (≈ 0.0837 to 0.335 µM) in experiment [1], 0.0125 to 0.8 µg/mL (≈ 0.0209 to 1.34 µM) in experiment [2], about 0.0125 µg/mL (≈ 0.0209 µM) in experiment [3] and about 0.0125 µg/mL (≈ 0.0209 µM) in experiment [4]. Moreover, the “activity against Pseudomonas aeruginosa” value in experiment [5] was “shows activtiy”.

One may read the MIC as the lowest concentration that inhibits growth of the organism. The low end stands for inhibition by little substance, the high end for a need for much substance.
